Results reported in paper PMC10298530, “Synthesis and Anticancer Activity of A-Ring-Modified Derivatives of Dihydrobetulin” (International Journal of Molecular Sciences, 2023).
Where “and” joins values, the source holds several entries; their conditions need not be identical. Equal values may be shown once. Read-outs that look alike come from different tables or passages of the source.

Columns and labels:
HBL-100/Dox cells [1] = assay: Annexin V-FITC/PI assay, HBL-100/Dox; type: cell-based, human; conditions: 16 h, dose IC50
Procedure: (§1) Briefly, after exposing the cells to the tested and control compounds for 16 h, the cells were detached with accutase (HiMedia Laboratories, Maharashtra, India) and washed with cold PBS. Then, the cells were re-suspended in 100 μL of 1 × Binding Buffer at concentration 1 × 10^6 cells/mL and incubated with 5 μL Annexin V-FITC and 5 μL propidium iodide (PI) for 15 min at room temperature in darkness. After incubation, 400 μL of 1 × Binding Buffer was added to each tube. The samples were analyzed by flow cytometry (CytoFlex S, Beckman Coulter, Brea, CA, USA) within 1 h of staining, and the findings were analyzed using a trial version of the Kaluza software (Beckman Coulter, Brea, CA, USA).

HEK293 = assay: MTT cell viability assay, HEK293; type: cell-based; conditions: Homo sapiens
Text: (§2) Blokhin National Medical Research Center of Oncology (the Ministry of Health of the Russian Federation, Moscow).

MCF-7 = assay: MTT cell viability assay, MCF-7; type: cell-based, human; conditions: Homo sapiens, MCF7
Text: as §2

MS = assay: MTT cell viability assay, MS; type: cell-based, human; conditions: Homo sapiens;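 for IC50 (mean ± SD): MS is a melanocyte cell line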
Text: as §2

HEpG2 = assay: MTT cell viability assay, HEpG2; type: cell-based, human; conditions: Homo sapiens
Text: as §2

HBL-100/Dox cells [2] = assay: Hoechst 33342 / TMRE fluorescent microscopy, HBL-100/Dox; type: cell-based, human; conditions: Hoechst 33342, 16 h, IC50 values (MK 1.8 µM)
Procedure: (§3) The DNA marker, termed Hoechst 33342 Ready Flow Reagent, was used as a stock solution (Invitrogen, ThermoFisher Scientific, USA). The mitochondrial marker, LumiTracker Mito TMRE (tetramethylrhodamine, ethyl ester; Lumiprobe, Moscow, Russia), was dissolved in DMSO as 1.0 mM stock solution. The marker of reactive oxygen species, H2DCFDA (Lumiprobe, Moscow, Russia), was dissolved in DMSO as 100.0 μM stock solution. After incubation, the cells were incubated with FBS-free culture medium containing the dye mixture of Hoechst 33342 (final concentration 1.0 μM) and LumiTracker Mito TMRE (final concentration 1.0 μM), or H2DCFDA dye taken alone (final concentration 1.0 μM), for 30 min at 37 °C in darkness. Fluorescence, at 420 nm (Hoechst 33342), at 510 nm (TMRE), and at 575 nm (H2DCFDA), of the test cultures (including controls) was analyzed immediately using a fluorescence microscope CKX 53 (Olympus, Tokyo, Japan). The TMRE fluorescence intensity was quantified using Fiji (ImageJ).

RD TE32 = assay: MTT cell viability assay, RD TE32; type: cell-based, human; conditions: Homo sapiens
Text: as §2

HBL-100 cells [3] = assay: Cell cycle analysis (DAPI, flow cytometry), HBL-100; type: cell-based, human; conditions: for Cell cycle of HBL-100, S-phase: dose = IC50
Procedure: (§4) The cells were trypsinized and rinsed with the growth medium. Then, the cells were harvested by centrifugation at 500× g for 3 min, and the supernatant was discarded. The cells were washed with PBS (PanEco, Moscow, Russia) twice and centrifuged under similar conditions. The cells were resuspended in 500 μL of PBS, put into centrifuge tubes and fixed by adding 4.5 mL of 70% ethanol dropwise (on ice). The samples were fixed at 4 °C. Overnight, the fixed cells were centrifugally collected (1000× g, 4 °C, 5 min) and washed again with PBS. The cells were finally resuspended in DAPI with 0.1% Triton X-100 in PBS solution (10 μg/mL, Sigma–Aldrich, St. Louis, MO, USA), and stained for 30 min at room temperature in darkness. For each sample, at least 50,000 cells were analyzed using the CytoFlex S flow cytometer (Beckman Coulter, Brea, CA, USA). Cell cycle populations were quantified from DNA histograms with the FlowJo software (ver. X 10.0.7r2, FlowJo Software, San Jose, CA, USA).

PC-3 = assay: MTT cell viability assay, PC-3; type: cell-based, human; conditions: Homo sapiens; PC-3, MTT, 72 h of treatment; read-out: IC50 Values (Mean ± SD)
Text: as §2

HBL-100/Dox = assay: MTT cell viability assay, HBL-100/Dox; type: cell-based, human; conditions: Homo sapiens
Procedure: (§5) The cells were cultured in a humidified CO2 incubator (model 460-CE; Thermo Fisher Scientific, Waltham, MA, USA) at +37 °C and 5% CO2.
(§6) The percentage of the viable cells was calculated according to the following equation: cell viability (%) = 100 × (mean absorbance in the treatment group/mean absorbance in the control group). The results were expressed pictorially using Prism 6.0 (GraphPad Software, Boston, MA, USA).

HBL-100 = assay: MTT cell viability assay, HBL-100; type: cell-based, human; conditions: Homo sapiens
Procedure: as §5, §6

HBL-100/Dox cells [4] = assay: Cell cycle analysis (DAPI, flow cytometry), HBL-100/Dox; type: cell-based, human; conditions: HBL-100/Dox (resistant) cells, 12-24 h, IC50
Procedure: as §4

HCT116 = assay: MTT cell viability assay, HCT116; type: cell-based, human; conditions: Homo sapiens, HCT-116; HCT116, MTT, 72 h of treatment; read-out: IC50 Values (Mean ± SD)
Text: as §2

HBL-100 cells [5] = assay: Annexin V-FITC/PI assay, HBL-100; type: cell-based, human; conditions: 16 h, dose IC50
Procedure: as §1

HBL-100/Dox cells [6] = assay: Combined action of compounds, MTT assay on HBL-100/Dox cells; type: cell-based, human; conditions: 72 h, with 30 μM verapamil
Text: The results were expressed pictorially using Prism 6.0 (GraphPad Software, Boston, MA, USA).

HBL-100 cells [7] = assay: Hoechst 33342 / TMRE fluorescent microscopy, HBL-100; type: cell-based, human; conditions: Hoechst 33342, 16 h, IC50 values (MK 1.0 µM)
Procedure: as §3

With `COc1cccc2c1C(=O)c1c(O)c3c(c(O)c1C2=O)C[C@@](O)(C(=O)CO)C[C@@H]3O[C@H]1C[C@H](N)[C@H](O)[C@H](C)O1` [Dox, doxorubicin, reference compound] the Dead cells (HBL-100/Dox cells [1]) was 0.84±0.24%, the Early apoptotic cells (HBL-100/Dox cells [1]) was 2.56 ± 0.36% and 2.56±0.37% and the Late apoptotic cells (HBL-100/Dox cells [1]) was 0.82±0.55%. It also gave a Viable cells (HBL-100/Dox cells [1]) of 95.74±1.10%, an IC50 (HEK293; HEK293, MTT, 72 h of treatment, read-out: IC50 Values (Mean ± SD)) of 400 ± 100 nM and an IC50 (HEK293; Table S1, HEK293, read-out: IC50 (mean ± SD)) of 440 ± 40 nM. The IC50 (MCF-7; MCF-7, MTT, 72 h of treatment, read-out: IC50 Values (Mean ± SD)) was 400 ± 100 nM, the IC50 (MCF-7; Table S1, MCF-7, read-out: IC50 (mean ± SD)) was 380 ± 90 nM and the IC50 (MS; MS, MTT, 72 h of treatment, read-out: IC50 Values (Mean ± SD)) was 1300 ± 200 nM. The IC50 (MS; Table S1, MS, read-out: IC50 (mean ± SD)) was 1290 ± 160 nM, the IC50 (HEpG2; HEpG2, MTT, 72 h of treatment, read-out: IC50 Values (Mean ± SD)) was 1800 ± 300 nM and the IC50 (HEpG2; Table S1, HEpG2, read-out: IC50 (mean ± SD)) was 1780 ± 300 nM. For the same compound, the “number of cells with nuclear morphology changes” value (HBL-100/Dox cells [2]) was 9.9%, the IC50 (RD TE32; RD TE32, MTT, 72 h of treatment, read-out: IC50 Values (Mean ± SD)) was 1300 ± 100 nM and the IC50 (RD TE32; Table S1, RD TE32, read-out: IC50 (mean ± SD)) was 1270 ± 30 nM. For the same compound, the “Cell cycle of HBL-100, S-phase” value (HBL-100 cells [3]; 12 h) was 48.19±0.09%, the “Cell cycle of HBL-100, S-phase” value (HBL-100 cells [3]; 13 h) was 46.86±0.22% and the “Cell cycle of HBL-100, S-phase” value (HBL-100 cells [3]; 14 h) was 48.25±0.51%. For the same compound, the “Cell cycle of HBL-100, S-phase” value (HBL-100 cells [3]; 15 h) was 57.27±0.14%, the “Cell cycle of HBL-100, S-phase” value (HBL-100 cells [3]; 16 h) was 61.28±2.01% and the “Cell cycle of HBL-100, S-phase” value (HBL-100 cells [3]; 17 h) was 56.17±1.64%. The “Cell cycle of HBL-100, S-phase” value (HBL-100 cells [3]; 18 h) was 55.42±0.92%, the “Cell cycle of HBL-100, S-phase” value (HBL-100 cells [3]; 24 h) was 76.69±0.75% and the “effect on cell cycle progression” value (HBL-100 cells [3]; HBL-100 (parental) cells, 12-24 h, IC50) was “induced the S phase arrest”. For the same compound, the IC50 (PC-3) was 12600 ± 200 nM, the IC50 (HBL-100/Dox; HBL-100, 72 h, read-out: IC50 Values (Mean ± SD)) was 29600 ± 900 nM and the IC50 (HBL-100/Dox; HBL-100, read-out: IC50 (mean ± SD)) was 29600 ± 940 nM. The IC50 (HBL-100; HBL-100, MTT, 72 h of treatment, read-out: IC50 Values (Mean ± SD)) was 400 ± 100 nM, the IC50 (HBL-100; Table S1, HBL-100, read-out: IC50 (mean ± SD)) was 350 ± 30 nM and the “effect on cell cycle progression” value (HBL-100/Dox cells [4]) was “induced the S phase arrest”. It also gave an IC50 (HCT116) of 1300 ± 300 nM, a Dead cells (HBL-100 cells [5]) of 1.80±0.31% and an Early apoptotic cells (HBL-100 cells [5]) of 12.35 ± 0.42%. The Late apoptotic cells (HBL-100 cells [5]) was 1.93±0.29%, the Viable cells (HBL-100 cells [5]) was 83.89±0.82% and the “diminution of IC50 value of Dox in combination with verapamil” value (HBL-100/Dox cells [6]) was 37 fold. For the same compound, the “number of cells with nuclear morphology changes” value (HBL-100 cells [7]) was 25.2%.
